According to patent publication US5200335A (Forschungszentrum Juelich GmbH, priority 1990, dated 1993):
Entries after “also recorded” stand apart in the source; their conditions may differ. Like-named read-outs stand apart in the source and are kept apart here.

Legend:
[1] = biological target: T1, phenylethanol dehydrogenase (Lentilactobacillus kefiri, UniProt Q6WVP7); assay: Effect of metal cations, inhibitors and SH-protecting reagents on enzyme activity; format: biochemical, Lactobacillus kefir
T1 sequence (Q6WVP7 2-252 limits assumed): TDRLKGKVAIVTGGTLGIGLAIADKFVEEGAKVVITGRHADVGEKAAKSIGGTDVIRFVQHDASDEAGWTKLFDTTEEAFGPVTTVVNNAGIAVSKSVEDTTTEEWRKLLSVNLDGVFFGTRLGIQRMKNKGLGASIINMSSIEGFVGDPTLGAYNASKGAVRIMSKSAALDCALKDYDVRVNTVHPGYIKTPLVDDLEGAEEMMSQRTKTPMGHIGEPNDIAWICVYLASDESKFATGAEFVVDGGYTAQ
Protocol: Partially purified enzyme (after Mono-Q chromatography, concentrated 20-fold) was employed for the following tests.
(i) METAL CATIONS: The effect of Mg^2+, […] and Mn^2+ ions was investigated using the assay mixture detailed below. […]
(ii) INHIBITORS AND SH-[…]: An assay mixture according to Example 2 C(i) without added metal cations but with addition of various inhibitors or SH-[…] at a final concentration of 1 mM was used to determine the effect of certain enzyme inhibitors and SH-[…] on enzyme activity. […] Phenylmethanesulfonyl fluoride was dissolved in acetonitrile to a final concentration of acetonitrile of […]. Acetonitrile alone had no effect on the enzyme activity in control tests.

[2] = biological target: T1, phenylethanol dehydrogenase; assay: NADPH-dependent reduction: substrate spectrum and dependence of reaction rate on acetophenone/NADPH concentration
[3] = biological target: T1, phenylethanol dehydrogenase; assay: NADP+-dependent oxidation / reverse reaction with R(+)- or S(-)-phenylethanol; settings: for Vmax: NADP+-dependent oxidations; for Enzyme activity (oxidation): 11 mM alcohol, pH 8.0, NADP+, 340 nm, 30° C.; for Stereospecificity / effect on the enzyme (in words): comparison of mixtures I, II and III
Protocol: (§1) The optimum pH for the reverse reaction, the oxidation of phenylethanol, was measured in an analogous manner. (±)-Phenylethanol (22 mM) was dissolved in aliquots of a 0.1M buffer and the pH was adjusted to a range from 4.0 to 10.0.
(§2) A third mixture containing 22 mM (±)-phenylethanol was employed for comparison. Enzyme activity was measured by photometry at 340 nm at 30° C.

[4] = substrate: CC(C)O; assay: cells, lysate or membranes named; settings: other: NADP+-dependent oxidations; 30.0 °C
[5] = substrate: CC(O)c1ccccc1; assay: cells, lysate or membranes named; settings: other: NADP+-dependent oxidations; 30.0 °C
Protocol: as §1, §2

[6] = substrate: C[C@@H](O)c1ccccc1; assay: cells, lysate or membranes named; settings: other: NADP+-dependent oxidations; 30.0 °C
Protocol: as §1, §2

[7] = substrate: NC(=O)c1ccc[n+]([C@@H]2O[C@H](COP(=O)(O)OP(=O)(O)OC[C@H]3O[C@@H](n4cnc5c(N)ncnc54)[C@H](OP(=O)(O)O)[C@@H]3O)[C@@H](O)[C@H]2O)c1; assay: cells, lysate or membranes named; settings: other: NADP+-dependent oxidations; 30.0 °C
Protocol: as §1, §2

[8] = substrate: CC(=O)C(C)(C)C; assay: purified protein, by the assay type; settings: pH 7.0; 30.0 °C
[9] = substrate: CC(=O)CCc1ccccc1; assay: purified protein, by the assay type; settings: other: NADPH-dependent reductions, pH 7.0, 0.2 mM NADPH, partially purified enzyme, 30.0 °C
[10] = substrate: CC(=O)c1ccc(Br)cc1; assay: purified protein, by the assay type; settings: other: NADPH-dependent reductions, pH 7.0, 0.2 mM NADPH, partially purified enzyme, 30.0 °C
[11] = substrate: CC(=O)c1ccc(Cl)cc1; assay: purified protein, by the assay type; settings: pH 7.0; 30.0 °C
[12] = substrate: CC(=O)c1ccccc1; assay: purified protein, by the assay type; settings: other: acetophenone 50-7100 μM, 0.2 mM NADPH, pH 7.0, 30° C.
[13] = substrate: CC(C)=O; assay: purified protein, by the assay type; settings: other: NADPH-dependent reductions, pH 7.0, 0.2 mM NADPH, partially purified enzyme, 30.0 °C
[14] = substrate: CCC(=O)c1ccccc1; assay: purified protein, by the assay type; settings: pH 7.0; 30.0 °C
[15] = substrate: CCCCCC(=O)CC; assay: purified protein, by the assay type; settings: other: NADPH-dependent reductions, pH 7.0, 0.2 mM NADPH, partially purified enzyme, 30.0 °C
[16] = substrate: CCCCCCC(C)=O; assay: purified protein, by the assay type; settings: other: NADPH-dependent reductions, pH 7.0, 0.2 mM NADPH, partially purified enzyme, 30.0 °C
[17] = substrate: NC(=O)C1=CN([C@@H]2O[C@H](COP(=O)(O)OP(=O)(O)OC[C@H]3O[C@@H](n4cnc5c(N)ncnc54)[C@H](OP(=O)(O)O)[C@@H]3O)[C@@H](O)[C@H]2O)C=CC1; assay: purified protein, by the assay type; settings: other: NADPH 13 to 380 μM, 5.3 mM acetophenone, pH 7.0, 30° C.
[18] = pH 7; read-out: Activity remaining
[19] = NADPH-dependent reductions, […]
[20] = NADPH-dependent reductions, pH 7.0, 0.2 mM NADPH, partially purified enzyme
[21] = pH 7, read-out: Activity remaining
[22] = addition at final concentration 1 mM; 5.5 mM acetophenone, 0.2 mM NADPH, pH 7.0; partially purified enzyme

O[C@H](CS)[C@H](O)CS (racemic) [Dithiothreitol]
remaining activity at 1000 µM [1, 18]: 95%

c1cnc2c(c1)ccc1cccnc12 [1,10-Phenanthroline]
Effect on enzyme activity (in words) [1]: virtually no inhibition | remaining activity at 1000 µM [1, 18]: 99%

CC(=O)C(=O)c1ccccc1 [1-Phenyl-1,2-propanedione]
Vmax [2, 19]: 70% | Reduction by the enzyme (in words) ([2]; in the presence of NADPH): capable of catalyzing the reduction; also recorded: capable of reducing

c1ccc(-c2ccccn2)nc1 [2,2'-Dipyridine]
Effect on enzyme activity (in words) [1]: virtually no inhibition | remaining activity at 1000 µM [1, 18]: 106%

CC(=O)c1ccc(Br)cc1 [4-Bromoacetophenone]
Vmax [2, 19]: 101% | Reduction by the enzyme (in words) ([2]; in the presence of NADPH, listed as p-bromoacetophenone): capable of catalyzing the reduction; also recorded: capable of reducing

CC(=O)c1ccc(Cl)cc1 [4-Chloroacetophenone]
Vmax [2, 19]: 93% | Reduction by the enzyme (in words) ([2]; in the presence of NADPH, listed as p-chloroacetophenone): capable of catalyzing the reduction; also recorded: capable of reducing

CC(=O)CCc1ccccc1 [4-Phenyl-2-butanone]
Vmax [2, 20]: 90% | Reduction by the enzyme (in words) ([2]; in the presence of NADPH): capable of catalyzing the reduction; also recorded: capable of reducing

CC(C)=O [Acetone]
Vmax [2, 19]: 96% | Reduction by the enzyme (in words) ([2]; in the presence of NADPH): capable of catalyzing the reduction; also recorded: capable of reducing

CC(=O)c1ccccc1 [Acetophenone]
Vmax [2, 20]: 100% | Substrate concentration at maximum enzyme activity ([2]; acetophenone conversion, 0.2 mM NADPH, pH 7.0, 30° C.): 5.3 mM | Maximum activity ([2]; at 5.3 mM acetophenone, 0.2 mM NADPH): 18.6 U/ml | Reduction by the enzyme (in words) ([2]; in the presence of NADPH): capable of catalyzing the reduction; also recorded: capable of reducing | Excess substrate inhibition ([2]; up to an acetophenone concentration of 10.6 mM): no excess substrate inhibition

O=Cc1ccccc1 [Benzaldehyde]
Vmax [2, 19]: 10%

O=C(O)CN(CCN(CC(=O)O)CC(=O)O)CC(=O)O [EDTA]
Effect on enzyme activity (in words) [1]: completely inhibited; also recorded: rapidly inactivated; also recorded: rapid inactivation | remaining activity at 1000 µM [1, 21]: 0%

CCCCCC(=O)CC [Ethyl pentyl ketone]
Vmax [2, 20]: 66% | Reduction by the enzyme (in words) ([2]; in the presence of NADPH): capable of catalyzing the reduction; also recorded: capable of reducing

N[C@@H](CCC(=O)N[C@@H](CS)C(=O)NCC(=O)O)C(=O)O [Glutathione]
remaining activity at 1000 µM [1, 21]: 99%

NC(=O)CI [Iodoacetamide]
Effect on enzyme activity (in words) [1]: relatively weak inhibition | remaining activity at 1000 µM [1, 18]: 90%

CC(C)O [Isopropanol]
Vmax [3]: 18%

CC(=O)C=C(C)C [Mesityl oxide, 4-methyl-3-pentene-2-one]
Vmax [2, 19]: 12%

CC(=O)c1ccc2ccccc2c1 [Methyl 2-naphthyl ketone]
Vmax [2, 20]: 11%

CCCCCCC(C)=O [Methyl hexyl ketone]
Vmax [2, 20]: 91% | Reduction by the enzyme (in words) ([2]; in the presence of NADPH): capable of catalyzing the reduction; also recorded: capable of reducing

[Cl-].[Cl-].[Mg+2] [MgCl2]
Activity remaining [1, 22]: 132%

C[C@H](O)c1ccccc1 [Mixture II, S(-)-phenylethanol]
Enzyme activity (oxidation) [3]: 0 U/ml | Stereospecificity / effect on the enzyme (in words) [3]: inhibits the enzyme

[Cl][Mn][Cl] [MnCl2]
Activity remaining [1, 22]: 114%

CCN1C(=O)C=CC1=O [N-Ethylmaleimide]
Effect on enzyme activity (in words) [1]: relatively weak inhibition | remaining activity at 1000 µM [1, 18]: 81%

NC(=O)C1=CN([C@@H]2O[C@H](COP(=O)(O)OP(=O)(O)OC[C@H]3O[C@@H](n4cnc5c(N)ncnc54)[C@H](OP(=O)(O)O)[C@@H]3O)[C@@H](O)[C@H]2O)C=CC1 [NADPH]
NADPH concentration at maximum enzyme activity ([2]; 5.3 mM acetophenone, pH 7.0, 30° C.): 190 µM | Vmax [2, 20]: 100% | Maximum enzyme activity ([2]; at 190 μM NADPH, 5.3 mM acetophenone): 16.9 U/ml

NC(=O)c1ccc[n+]([C@@H]2O[C@H](COP(=O)(O)OP(=O)(O)OC[C@H]3O[C@@H](n4cnc5c(N)ncnc54)[C@H](OP(=O)(O)O)[C@@H]3O)[C@@H](O)[C@H]2O)c1 [NADP^+]
Vmax [3]: 17%

O=S(=O)(F)Cc1ccccc1 [Phenylmethanesulfonyl fluoride]
Activity remaining [1, 22]: 94%

CC(=O)C(C)(C)C [Pinacolone]
Reduction by the enzyme (in words) [2]: capable of catalyzing the reduction; also recorded: capable of reducing | Vmax ([2]; pH 7): 53%

CCC(=O)c1ccccc1 [Propiophenone]
Vmax [2, 19]: 43% | Reduction by the enzyme (in words) ([2]; in the presence of NADPH): capable of catalyzing the reduction; also recorded: capable of reducing

C[C@@H](O)c1ccccc1 [R(+)-Phenylethanol]
Enzyme activity (oxidation) [3]: 3.5 U/ml | Vmax [3]: 11% | Stereospecificity / effect on the enzyme (in words) [3]: highly specific

[Cl-].[Cl-].[Zn+2] [ZnCl2]
Activity remaining [1, 22]: 114%

O=C(O)c1cc[c]([Hg][OH])cc1 [p-Hydroxymercurybenzoate]
Effect on enzyme activity (in words) [1]: relatively weak inhibition | Activity remaining ([1]; addition at final concentration 0.1 mM; 5.5 mM acetophenone, 0.2 mM NADPH, pH 7.0; partially purified enzyme): 92%

(±)-Methylcyclohexanone
Km [2, 20]: 70000 µM | Vmax [2, 20]: 109% | Reduction by the enzyme (in words) ([2]; in the presence of NADPH): capable of catalyzing the reduction; also recorded: capable of reducing

Triton X-100
Activity remaining [1, 22]: 94%

B1: phenylethanol dehydrogenase (Lentilactobacillus kefiri) (protein)
chain: TDRLKGKVAIVTGGTLGIGLAIADKFVEEGAKVVITGRHADVGEKAAKSIGGTDVIRFVQHDASDEAGWTKLFDTTEEAFGPVTTVVNNAGIAVSKSVEDTTTEEWRKLLSVNLDGVFFGTRLGIQRMKNKGLGASIINMSSIEGFVGDPTLGAYNASKGAVRIMSKSAALDCALKDYDVRVNTVHPGYIKTPLVDDLEGAEEMMSQRTKTPMGHIGEPNDIAWICVYLASDESKFATGAEFVVDGGYTAQ
Km [4]: 117 µM | Km [5]: 4300 µM | Km [6]: 3500 µM | Km [7]: 190 µM | Km [8]: 3380 µM | Km [9]: 9400 µM | Km [10]: 372 µM | Km [11]: 390 µM | Km [12]: 600 µM | Km [13]: 37900 µM | Km [14]: 2740 µM | Km [15]: 681 µM | Km [16]: 251 µM | Km [17]: 140 µM
